# From article PMC6720883, “In Vitro Inhibitory Effects of APINACA on Human Major Cytochrome P450, UDP-Glucuronosyltransferase Enzymes, and Drug Transporters” (Molecules, 2019)
# Read-outs that look alike come from different tables or passages of the source.
# Experiments:
# CYP2B6 = CYP2B6 (Homo sapiens, UniProt P20813); assay: Inhibition of CYP2B6-mediated bupropion hydroxylase in ultrapooled human liver microsomes; format: in vitro ADME
# Protocol: After 3 min of preincubation at 37 °C, the reaction mixtures were incubated with the addition of NADPH in a shaking water bath for 15 min at 37 °C. The reaction was stopped by adding 100 μL of ice cold d9-1′-hydroxybufuralol (internal standard) in methanol.
# Next, the reaction mixtures were incubated with a seven-CYP probe substrate cocktail or bupropion for 15 min at 37 °C.
# The LC-MS/MS system was comprised of an Agilent 6495 triple quadrupole mass spectrometer coupled with an Agilent 1290 Infinity system (Agilent Technologies, CA, USA). The column and autosampler temperatures were 40 °C and 4 °C, respectively.
# The data were processed using Mass Hunter software (Agilent Technologies).
# (§1) 12.5 (Systat Software, Inc.; San Jose, CA, USA). […] 1.1 (Systat Software, Inc.).
# CYP2D6 = CYP2D6 (Homo sapiens, UniProt P10635); assay: Inhibition of CYP2D6-mediated bufuralol 1′-hydroxylase in ultrapooled human liver microsomes; format: in vitro ADME
# CYP2D6, sequence (P10635 whole entry): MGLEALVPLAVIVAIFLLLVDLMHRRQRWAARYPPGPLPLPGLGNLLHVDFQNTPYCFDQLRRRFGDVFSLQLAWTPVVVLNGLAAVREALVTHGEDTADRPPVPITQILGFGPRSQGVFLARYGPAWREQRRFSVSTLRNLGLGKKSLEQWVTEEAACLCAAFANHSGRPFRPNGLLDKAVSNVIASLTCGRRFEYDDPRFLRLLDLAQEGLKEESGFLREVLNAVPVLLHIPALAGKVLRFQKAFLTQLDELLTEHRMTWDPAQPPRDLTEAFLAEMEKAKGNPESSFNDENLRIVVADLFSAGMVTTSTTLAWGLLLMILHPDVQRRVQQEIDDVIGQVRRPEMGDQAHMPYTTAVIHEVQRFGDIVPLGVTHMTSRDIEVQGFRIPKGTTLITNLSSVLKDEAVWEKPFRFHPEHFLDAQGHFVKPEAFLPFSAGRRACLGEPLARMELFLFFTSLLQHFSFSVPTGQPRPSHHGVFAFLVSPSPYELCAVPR
# Protocol: (§2) The inhibitory potentials (IC50 values) of APINACA and typical CYP inhibitors on CYP 1A2, 2A6, 2C8, 2C9, 2C19, 2D6, and 3A4 activities in pooled human liver microsomes were evaluated following our previous method using a cocktail of CYP substrates, followed by LC–MS/MS [43]. […] After 3 min of preincubation at 37 °C, the reaction mixtures were incubated for 15 min at 37 °C with the addition of NADPH in a shaking water bath. The reaction was stopped by adding 100 μL of ice cold methanol containing internal standards (d9-1′-hydroxybufuralol for 1′-hydroxybufuralol, 4′-hydroxydiclofenac, 7-hydroxycoumarin, 1′-hydroxymidazolam, and 4′-hydroxymephenytoin; ^13C2, ^15N-acetaminophen for acetaminophen and N-desethylamodiaquine). The incubation mixtures were centrifuged at 13,000× g for 8 min at 4 °C, and 50 μL of each supernatant was diluted with 50 μL of water. Aliquots (5 μL) of the diluted supernatants were analyzed by LC–MS/MS. All assays were performed in triplicate, and the average values were used for subsequent calculations.
# (§3) To measure the time-dependent inhibition, human liver microsomes were preincubated with the various concentrations of APINACA (final concentrations of 0.1−100 μM) and NADPH for 30 min at 37 °C. Next, the reaction mixtures were incubated with a seven-CYP probe substrate cocktail or bupropion for 15 min at 37 °C. […]
# CYP1A2 = CYP1A2 (Homo sapiens, UniProt P05177); assay: Inhibition of CYP1A2-mediated phenacetin O-deethylase in ultrapooled human liver microsomes (cocktail, LC-MS/MS); format: in vitro ADME
# CYP1A2, sequence (P05177 whole entry): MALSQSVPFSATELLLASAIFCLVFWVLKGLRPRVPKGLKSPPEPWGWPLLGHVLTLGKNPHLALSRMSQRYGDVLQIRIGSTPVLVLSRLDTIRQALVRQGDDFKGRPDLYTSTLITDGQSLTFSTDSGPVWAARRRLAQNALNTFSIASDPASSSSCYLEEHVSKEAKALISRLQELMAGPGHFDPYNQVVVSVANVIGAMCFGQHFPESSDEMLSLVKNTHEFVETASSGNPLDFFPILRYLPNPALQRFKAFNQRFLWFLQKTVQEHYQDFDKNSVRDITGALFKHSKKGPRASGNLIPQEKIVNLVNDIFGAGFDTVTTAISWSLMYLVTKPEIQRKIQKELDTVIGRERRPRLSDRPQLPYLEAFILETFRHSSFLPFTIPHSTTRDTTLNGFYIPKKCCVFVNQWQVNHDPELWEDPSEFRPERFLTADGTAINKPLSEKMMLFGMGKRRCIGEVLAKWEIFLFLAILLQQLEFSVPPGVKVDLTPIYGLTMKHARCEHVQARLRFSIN
# Protocol: as §2, §3
# UGT1A9 = molecular target: T1, UGT1A9 (Homo sapiens, UniProt O60656); assay: Enzyme kinetic analysis of UGT1A9 inhibition (Dixon plot) in human liver microsomes; format: in vitro ADME; set-up: […]; tissue Corning Life Sciences
# T1 sequence (O60656 26-530): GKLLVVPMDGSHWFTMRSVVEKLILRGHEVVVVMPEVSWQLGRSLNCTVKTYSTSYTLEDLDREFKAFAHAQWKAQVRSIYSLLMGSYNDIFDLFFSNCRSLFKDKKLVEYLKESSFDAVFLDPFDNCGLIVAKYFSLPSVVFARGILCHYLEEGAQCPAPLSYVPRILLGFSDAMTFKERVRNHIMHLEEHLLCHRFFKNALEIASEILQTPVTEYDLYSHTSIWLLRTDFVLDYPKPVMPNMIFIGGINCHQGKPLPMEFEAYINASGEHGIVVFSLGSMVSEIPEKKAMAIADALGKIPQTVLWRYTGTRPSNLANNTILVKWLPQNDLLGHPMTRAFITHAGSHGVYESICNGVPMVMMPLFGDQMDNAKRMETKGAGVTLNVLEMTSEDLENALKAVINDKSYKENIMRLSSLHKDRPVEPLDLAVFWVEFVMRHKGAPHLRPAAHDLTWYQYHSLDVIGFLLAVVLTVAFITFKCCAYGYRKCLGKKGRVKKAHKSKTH
# Protocol: The reaction was stopped by adding 100 μL of ice cold acetonitrile containing propofol glucuronide (internal standard), and the mixtures were centrifuged at 13,000× g for 4 min.
# as §1
# OATP1B3 = OATP1B3 (Homo sapiens, UniProt Q9NPD5)
# OATP1B3, sequence (Q9NPD5 whole entry): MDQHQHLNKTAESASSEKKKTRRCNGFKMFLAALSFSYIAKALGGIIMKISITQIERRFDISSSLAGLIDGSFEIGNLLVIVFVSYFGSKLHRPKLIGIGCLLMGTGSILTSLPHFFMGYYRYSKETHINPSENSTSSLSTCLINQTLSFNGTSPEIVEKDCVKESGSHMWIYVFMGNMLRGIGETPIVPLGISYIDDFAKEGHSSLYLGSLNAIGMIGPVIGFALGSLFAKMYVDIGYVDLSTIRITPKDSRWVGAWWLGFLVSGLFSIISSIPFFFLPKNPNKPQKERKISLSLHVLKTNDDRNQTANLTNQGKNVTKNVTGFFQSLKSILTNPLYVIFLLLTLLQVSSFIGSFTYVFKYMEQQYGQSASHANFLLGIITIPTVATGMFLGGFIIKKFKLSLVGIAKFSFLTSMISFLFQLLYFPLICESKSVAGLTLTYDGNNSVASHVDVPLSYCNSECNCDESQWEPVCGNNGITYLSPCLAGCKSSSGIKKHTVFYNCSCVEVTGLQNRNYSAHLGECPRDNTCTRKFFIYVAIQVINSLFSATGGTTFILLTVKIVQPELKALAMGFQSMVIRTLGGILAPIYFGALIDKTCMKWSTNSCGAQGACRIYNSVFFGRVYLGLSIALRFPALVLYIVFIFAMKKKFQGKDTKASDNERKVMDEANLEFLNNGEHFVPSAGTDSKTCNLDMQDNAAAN
# CYP3A4 = CYP3A4 (Homo sapiens, UniProt P08684); assay: Time-dependent inhibition kinetics of CYP3A4 midazolam 1′-hydroxylation in human liver microsomes; format: in vitro ADME
# CYP3A4, sequence (P08684 2-503): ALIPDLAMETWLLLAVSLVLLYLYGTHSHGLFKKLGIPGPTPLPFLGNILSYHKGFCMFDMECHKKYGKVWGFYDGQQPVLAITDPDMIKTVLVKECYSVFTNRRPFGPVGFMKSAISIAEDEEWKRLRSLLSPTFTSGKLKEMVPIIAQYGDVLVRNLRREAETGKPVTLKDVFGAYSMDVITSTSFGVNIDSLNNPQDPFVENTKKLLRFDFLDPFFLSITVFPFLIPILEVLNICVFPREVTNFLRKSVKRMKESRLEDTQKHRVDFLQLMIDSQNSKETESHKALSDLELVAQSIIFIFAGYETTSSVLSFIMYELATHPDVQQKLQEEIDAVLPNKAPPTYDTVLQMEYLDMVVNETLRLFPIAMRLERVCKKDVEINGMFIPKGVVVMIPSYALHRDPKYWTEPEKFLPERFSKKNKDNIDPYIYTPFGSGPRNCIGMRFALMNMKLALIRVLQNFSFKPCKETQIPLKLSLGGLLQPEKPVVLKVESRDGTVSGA
# Protocol: The kinetic parameters for the time-dependent inhibition potency of APINACA against human liver microsomal CYP3A4 activity were evaluated. Ultrapooled human liver microsomes (1 mg/mL) were preincubated with various concentrations of APINACA (final concentrations of 1–40 μM) in 50 mM potassium phosphate buffer (pH 7.4) in the presence of NADPH. Aliquots (10 μL) of the preincubated mixtures were withdrawn 5, 10, 20, and 30 min after incubation was commenced and were added to other tubes containing 2 μM midazolam, 1 mM NADPH, 50 mM potassium phosphate buffer (pH 7.4), and 10 mM MgCl2 in 90-μL reaction mixtures. The second reactions were terminated after 10 min by adding 100 μL of ice cold methanol containing d9-1′-hydroxybufuralol. […] Aliquots (5 μL) of the diluted supernatants were analyzed by LC–MS/MS.
# as §1
# CYP2B6, sequence (P20813 whole entry): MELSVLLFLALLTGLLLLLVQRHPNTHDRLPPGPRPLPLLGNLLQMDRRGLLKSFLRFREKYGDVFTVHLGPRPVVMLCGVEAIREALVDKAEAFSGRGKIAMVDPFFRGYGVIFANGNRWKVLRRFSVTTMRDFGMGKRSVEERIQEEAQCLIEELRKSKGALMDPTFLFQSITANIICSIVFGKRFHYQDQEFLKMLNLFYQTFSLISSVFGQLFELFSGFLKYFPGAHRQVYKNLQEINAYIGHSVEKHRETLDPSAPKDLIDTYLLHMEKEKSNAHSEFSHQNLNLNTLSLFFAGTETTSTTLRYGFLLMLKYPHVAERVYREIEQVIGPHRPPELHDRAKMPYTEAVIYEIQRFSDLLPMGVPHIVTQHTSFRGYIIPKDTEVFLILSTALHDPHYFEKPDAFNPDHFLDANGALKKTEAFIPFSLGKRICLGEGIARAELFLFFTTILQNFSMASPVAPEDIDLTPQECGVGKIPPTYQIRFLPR
smiles,measurement,setting,value
"CCCCCn1nc(C(=O)NC23CC4CC(CC(C4)C2)C3)c2ccccc21 [APINACA, N-(1-adamantyl)-1-pentyl-1H-indazole-3-carboxamide]",IC50,CYP2B6,> 100 µM
same,IC50,"CYP2B6; read-out: IC50 (μM) With Preincubation, CYP2B6 bupropion hydroxylase, ultrapooled human liver microsomes, 30-min preincubation with NADPH",> 100 µM
same,IC50,CYP2D6,> 100 µM
same,IC50,"CYP2D6; read-out: IC50 (μM) With Preincubation, CYP2D6 bufuralol 1′-hydroxylase, ultrapooled human liver microsomes, 30-min preincubation with NADPH",> 100 µM
same,IC50,CYP1A2,> 100 µM
same,IC50,"CYP1A2; read-out: IC50 (μM) With Preincubation, CYP1A2 phenacetin O-deethylase, ultrapooled human liver microsomes, 30-min preincubation with NADPH",> 100 µM
same,Ki,UGT1A9,5.9 µM
same,mode of inhibition of UGT1A9-catalyzed mycophenolic acid glucuronidation,"UGT1A9; human liver microsomes, enzyme kinetics study",noncompetitively inhibited
same,IC50,OATP1B3,> 250 µM
same,inactivation efficiency (kinact/Ki) for time-dependent inhibition of CYP3A4,CYP3A4; human liver microsomes,173 M⁻¹ s⁻¹
same,kinact,"CYP3A4; pH 7.4, probe midazolam 2 μM (1′-hydroxylation), ultrapooled human liver microsomes, time-dependent inhibition, read-out: kinact for time-dependent inhibition of CYP3A4-catalyzed midazolam 1′-hydroxylase (converted)",0.000781 s⁻¹
